Laboratory results published in patent US20260053811A1, “METHODS OF TREATING HYPERTENSION IN OBESE SUBJECTS” (Mineralys Therapeutics, Inc., priority 2022, published 2026).

Test system: hypertensive subjects
Experiment: Seated automated office blood pressure (AOBP) in randomized, placebo-controlled, dose-ranging study
Type: in vivo, human
Details: Part 1, 12.5 mg QD
Description: A randomized, double-blinded, placebo-controlled, dose-ranging, multicenter study was conducted to evaluate the effect of orally administered Compound A HBr on blood pressure for the treatment of hypertension in male and female subjects ≥18 years of age.
The study consists of two parts. For enrollment into Part 1 of the study, a subject's value of plasma renin activity (PRA) must be ≤1 ng/mL/h based on morning measurement. If the value of PRA >1 ng/mL/h based on morning measurement, then subjects may be eligible to enter Part 2 of the study.
For Part 1, 163 enrolled subjects ≥18 years of age were randomized into 6 equal treatment groups (1:1:1:1:1:1) to 12.5 mg BID, 25 mg BID, 12.5 mg QD, 50 mg QD, 100 mg QD, or placebo. After a review of interim clinical data, the 2 lowest dose levels (12.5 mg QD and 12.5 mg BID) were stopped for future randomization due to a lack of consistent meaningful reduction of blood pressure, but the patients randomized to that point remained in the study through completion. Thus, after the review of interim clinical data, subjects were randomized into 4 equal treatment groups (1:1:1:1) to 25 mg BID, 50 mg QD, 100 mg QD, or placebo.
For Part 2, 36 enrolled subjects ≥18 years of age were randomized (5:1) to either 100 mg QD Compound A HBr or placebo such that the Compound A HBr treatment group consisted of approximately 30 subjects and the placebo treatment group will consist of approximately 6 subjects.
Subjects orally administered the assigned study drug (Compound A HBr or placebo) according to the assigned dosing regimen for 8 weeks beginning on Study Day 1. All subjects in Part 1 (regardless of dosing group) received BID dosing to preserve the integrity of the blind; active drug is administered as the morning dose for all QD dose groups. Subjects returned to the research facility or were seen by the clinical investigator or approved home health care professional at the end of Study Weeks 1, 2, 3, 4, 5, 6, 7, and 8 (±2 days) for protocol-defined efficacy and safety assessments and procedures, assessment of adverse events (AEs), and confirmation of compliance with study drug usage. Subjects also completed a telephone visit and blood pressure (BP) check at home approximately 3 days post last dose of study drug. Subjects attended up to 14 full clinic visits, including a pre-Screening visit, a Screening/start of Placebo Run-in visit, a second visit during Placebo Run-in, a clinic visit to initiate the ABPM procedure, a Randomization visit, 8 weekly visits during double-blind treatment, and an end-of-study visit scheduled 4 weeks after the last study treatment for final efficacy and safety assessments.
An automated oscillometric sphygmomanometer device was used to measure the subjects' systolic and diastolic blood pressure in office after approximately 5 minutes of rest in the seated position.
The primary endpoint is the change in office-measured (mean of last 2 of 5 unattended measurements using an automated oscillometric sphygmomanometer device after approximately 5 minutes of rest in the seated position) systolic blood pressure (SBP) from baseline to the end of Study Week 8.
Secondary endpoints of this study were: • (a) Change in 24-hour ambulatory blood pressure monitoring (ABPM) parameters (systolic and diastolic) from baseline to the end of Study Week 7. • (b) Change in office-measured SBP from baseline to the end of Study Weeks 1, 2, 3, 4, 5, 6, and 7. • (c) Change in office-measured diastolic blood pressure (DBP) from baseline to the end of Study Weeks 1, 2, 3, 4, 5, 6, 7, and 8. • (d) Proportion of subjects who achieve office-measured BP of ≤130/80 mm Hg by the end of Study Week 8.

CC(=O)N[C@H]1CC[C@H](NC(=O)CN2CCN(c3nncc(-c4ccc(C)cc4)n3)CC2)CC1 [Compound A HBr]
Mean (SD) Automated Office-Measured Systolic Blood Pressure at Wk 8 (Age 65-79 yr): 135.63 (15.23) mmHg
Mean (SD) Change from Baseline at Week 8 in Automated Office-Measured Diastolic Blood Pressure (Age 65-79 yr): −5.06 (7.49) mmHg
Mean (SD) Change from Baseline at Week 8 in Automated Office-Measured Systolic Blood Pressure (Age 65-79 yr): −8.50 (14.04) mmHg
Mean (SD) Automated Office-Measured Diastolic Blood Pressure at Wk 8 (Age <65 yr): 82.63 (20.67) mmHg
Mean (SD) Automated Office-Measured Systolic Blood Pressure at Wk 8 (Age <65 yr): 144.88 (25.16) mmHg
Mean (SD) Change from Baseline at Week 8 in Automated Office-Measured Diastolic Blood Pressure (Age <65 yr): −2.19 (9.98) mmHg
Mean (SD) Change from Baseline at Week 8 in Automated Office-Measured Systolic Blood Pressure (Age <65 yr): −5.75 (22.93) mmHg
Mean (SD) Automated Office-Measured Diastolic Blood Pressure at Wk 8 (Age ≥80 yr): 93.50 (37.48) mmHg
Mean (SD) Automated Office-Measured Systolic Blood Pressure at Wk 8 (Age ≥80 yr): 145.00 (42.43) mmHg
Mean (SD) Change from Baseline at Week 8 in Automated Office-Measured Diastolic Blood Pressure (Age ≥80 yr): 13.00 (37.48) mmHg
Mean (SD) Change from Baseline at Week 8 in Automated Office-Measured Systolic Blood Pressure (Age ≥80 yr): −4.75 (39.95) mmHg
Mean (SD) Automated Office-Measured Diastolic Blood Pressure at Wk 8 (BMI 25−30 kg/m^2): 76.00 (6.22) mmHg
Mean (SD) Change from Baseline at Week 8 in Automated Office-Measured Diastolic Blood Pressure (BMI 25−30 kg/m^2): −4.64 (7.81) mmHg
Mean (SD) Automated Office-Measured Diastolic Blood Pressure at Wk 8 (BMI <25 kg/m^2): 73.00 (NE) mmHg
Mean (SD) Change from Baseline at Week 8 in Automated Office-Measured Diastolic Blood Pressure (BMI <25 kg/m^2): −1.50 (NE) mmHg
Mean (SD) Automated Office-Measured Diastolic Blood Pressure at Wk 8 (BMI >30 kg/m^2): 86.10 (21.92) mmHg
Mean (SD) Change from Baseline at Week 8 in Automated Office-Measured Diastolic Blood Pressure (BMI >30 kg/m^2): 0.20 (16.85) mmHg
Mean (SD) Automated Office-Measured Systolic Blood Pressure at Wk 8 (BMI at baseline 25-30 kg/m^2): 134.14 (18.96) mmHg
Mean (SD) Change from Baseline at Week 8 in Automated Office-Measured Systolic Blood Pressure (BMI at baseline 25-30 kg/m^2): −7.71 (19.07) mmHg
Mean (SD) Automated Office-Measured Systolic Blood Pressure at Wk 8 (BMI at baseline <25 kg/m^2): 137.00 (NE) mmHg
Mean (SD) Change from Baseline at Week 8 in Automated Office-Measured Systolic Blood Pressure (BMI at baseline <25 kg/m^2): −11.50 (NE) mmHg
Mean (SD) Automated Office-Measured Systolic Blood Pressure at Wk 8 (BMI at baseline >30 kg/m^2): 145.80 (24.73) mmHg
Mean (SD) Change from Baseline at Week 8 in Automated Office-Measured Systolic Blood Pressure (BMI at baseline >30 kg/m^2): −5.80 (22.31) mmHg
Mean (SD) Automated Office-Measured Diastolic Blood Pressure at Wk 8 (Race Black or AA): 85.00 (19.41) mmHg
Mean (SD) Automated Office-Measured Systolic Blood Pressure at Wk 8 (Race Black or AA): 147.50 (22.06) mmHg
Mean (SD) Change from Baseline at Week 8 in Automated Office-Measured Diastolic Blood Pressure (Race Black or AA): −0.69 (7.56) mmHg
Mean (SD) Change from Baseline at Week 8 in Automated Office-Measured Systolic Blood Pressure (Race Black or AA): −1.44 (16.04) mmHg
Mean (SD) Automated Office-Measured Diastolic Blood Pressure at Wk 8 (Race Other): 78.60 (15.76) mmHg
Mean (SD) Automated Office-Measured Systolic Blood Pressure at Wk 8 (Race Other): 135.40 (21.55) mmHg
Mean (SD) Change from Baseline at Week 8 in Automated Office-Measured Diastolic Blood Pressure (Race Other): −2.65 (17.00) mmHg
Mean (SD) Change from Baseline at Week 8 in Automated Office-Measured Systolic Blood Pressure (Race Other): −11.20 (22.29) mmHg
Mean (SD) Automated Office-Measured Diastolic Blood Pressure at Wk 8 (Seated SBP Tertile High): 84.22 (23.90) mmHg
Mean (SD) Change from Baseline at Week 8 in Automated Office-Measured Diastolic Blood Pressure (Seated SBP Tertile High): −1.06 (18.28) mmHg
Mean (SD) Automated Office-Measured Diastolic Blood Pressure at Wk 8 (Seated SBP Tertile Low): 78.50 (7.48) mmHg
Mean (SD) Change from Baseline at Week 8 in Automated Office-Measured Diastolic Blood Pressure (Seated SBP Tertile Low): −4.17 (6.69) mmHg
Mean (SD) Automated Office-Measured Diastolic Blood Pressure at Wk 8 (Seated SBP Tertile Middle): 79.00 (5.57) mmHg
Mean (SD) Change from Baseline at Week 8 in Automated Office-Measured Diastolic Blood Pressure (Seated SBP Tertile Middle): 0.83 (5.62) mmHg
Mean (SD) Automated Office-Measured Diastolic Blood Pressure at Wk 8 (Sex Female): 75.11 (8.40) mmHg
Mean (SD) Automated Office-Measured Systolic Blood Pressure at Wk 8 (Sex Female): 136.00 (17.23) mmHg
Mean (SD) Change from Baseline at Week 8 in Automated Office-Measured Diastolic Blood Pressure (Sex Female): −4.83 (8.08) mmHg
Mean (SD) Change from Baseline at Week 8 in Automated Office-Measured Systolic Blood Pressure (Sex Female): −9.22 (10.54) mmHg
Mean (SD) Automated Office-Measured Diastolic Blood Pressure at Wk 8 (Sex Male): 87.78 (21.70) mmHg
Mean (SD) Automated Office-Measured Systolic Blood Pressure at Wk 8 (Sex Male): 145.56 (26.10) mmHg
Mean (SD) Change from Baseline at Week 8 in Automated Office-Measured Diastolic Blood Pressure (Sex Male): 1.28 (17.06) mmHg
Mean (SD) Automated Office-Measured Systolic Blood Pressure at Wk 8 (Systolic Blood Pressure Tertile at Baseline High): 146.33 (26.41) mmHg
